Converted amounts (≈) assume the structure as drawn. Where a name gives a salt, the structure may show the parent alone.
Tests used:
[1] = Conversion in aqueous solution; type: physicochemical; conditions: for conversion of TAN-1057C and D: especially aqueous alkaline solution, by HPLC
Source text: For example, in case that the mixture of TAN-1057A and B is isolated as crystals of the sulfate, the ratio of TAN-1057A and B is about 6 to 8:4 to 2.
The term "Antibiotics TAN-1057" in the present specification includes also a mixture which contains TAN-1057A, B, C and D in an optional combination and an optional ratio thereof.

[2] = tested on: Staphylococcus epidermidis IFO 3762; type: cell-based; conditions: IFO3762, agar dilution, DY medium, pH unadjusted, approx. 10^6 CFU/ml, read-out: Minimum Inhibitory Conc. (MIC)
Description: (§1) (Note 1) Measurement was conducted by employing a medium consisting of DY
(§2) medium [Bacto Antibiotic Medium 3 (Difco Laboratories, USA)(17.5 g), Bact
(§3) yeast extract(Difco Laboratories, USA)(5.0 g) and distilled water(pH
(§4) unadjusted)(1000 ml)], using approximately 10^6 colony forming unit/m
(§5) of inoculum, by means of the agar dilution method.

[3] = tested on: Salmonella typhimurium IFO 12529; type: cell-based; conditions: Salmonella enterica; agar dilution; DY medium, pH unadjusted; approx. 10^6 CFU/ml; read-out: Minimum Inhibitory Conc. (MIC)
Description: as §1, §2, §3, §4, §5

[4] = tested on: Bacillus subtilis NIHJ PCI 219; type: cell-based; conditions: agar dilution, DY medium, pH unadjusted, approx. 10^6 CFU/ml, read-out: Minimum Inhibitory Conc. (MIC)
Description: as §1, §2, §3, §4, §5

[5] = tested on: Pseudomonas aeruginosa IFO 3080; type: cell-based; conditions: IFO3080, agar dilution, DY medium, pH unadjusted, approx. 10^6 CFU/ml, read-out: Minimum Inhibitory Conc. (MIC)
Description: as §1, §2, §3, §4, §5

[6] = tested on: Escherichia coli NIHJ JC 2; type: cell-based; conditions: NIHJJC2, agar dilution, DY medium, pH unadjusted, approx. 10^6 CFU/ml, read-out: Minimum Inhibitory Conc. (MIC)
Description: as §1, §2, §3, §4, §5

[7] = tested on: Bacillus cereus FDA 5; type: cell-based; conditions: FDA5, agar dilution, DY medium, pH unadjusted, approx. 10^6 CFU/ml, read-out: Minimum Inhibitory Conc. (MIC)
Description: as §1, §2, §3, §4, §5

[8] = tested on: Streptococcus faecalis IFO 3989; type: cell-based; conditions: Enterococcus faecalis, IFO3989; agar dilution; DY medium, pH unadjusted; approx. 10^6 CFU/ml; read-out: Minimum Inhibitory Conc. (MIC)
Description: as §1, §2, §3, §4, §5

[9] = tested on: Bacillus megaterium IFO 12108; type: cell-based; conditions: Priestia megaterium, IFO12108; agar dilution; DY medium, pH unadjusted; approx. 10^6 CFU/ml; read-out: Minimum Inhibitory Conc. (MIC)
Description: as §1, §2, §3, §4, §5

[10] = tested on: Acinetobacter calcoaceticus IFO 12552; type: cell-based; conditions: IFO12552, agar dilution, DY medium, pH unadjusted, approx. 10^6 CFU/ml, read-out: Minimum Inhibitory Conc. (MIC)
Description: as §1, §2, §3, §4, §5

[11] = tested on: Klebsiella pnemoniae IFO 3317; type: cell-based; conditions: IFO3317, agar dilution, DY medium, pH unadjusted, approx. 10^6 CFU/ml, read-out: Minimum Inhibitory Conc. (MIC)
Description: as §1, §2, §3, §4, §5

[12] = tested on: Aeromonas caviae NCW; type: cell-based; conditions: agar dilution, DY medium, pH unadjusted, approx. 10^6 CFU/ml, read-out: Minimum Inhibitory Conc. (MIC)
Description: as §1, §2, §3, §4, §5

[13] = tested on: Proteus vulgaris IFO 3988; type: cell-based; conditions: IFO3988, agar dilution, DY medium, pH unadjusted, approx. 10^6 CFU/ml, read-out: Minimum Inhibitory Conc. (MIC)
Description: as §1, §2, §3, §4, §5

[14] = tested on: Escherichia coli LD-2; type: cell-based; conditions: LD2, agar dilution, DY medium, pH unadjusted, approx. 10^6 CFU/ml, read-out: Minimum Inhibitory Conc. (MIC)
Description: as §1, §2, §3, §4, §5

[15] = tested on: Staphylococcus aureus FDA 209P; type: cell-based; conditions: FDA209P, agar dilution, DY medium, pH unadjusted, approx. 10^6 CFU/ml, read-out: Minimum Inhibitory Conc. (MIC)
Description: as §1, §2, §3, §4, §5

[16] = tested on: Micrococcus luteus IFO 12708; type: cell-based; conditions: IFO12708, agar dilution, DY medium, pH unadjusted, approx. 10^6 CFU/ml, read-out: Minimum Inhibitory Conc. (MIC)
Description: as §1, §2, §3, §4, §5

[17] = Acidity or basicity; type: physicochemical
[18] = Solubility; type: physicochemical

Row | Compound | conversion of TAN-1057C and D [1] | MIC [2] [µg/mL] | MIC [3] [µg/mL] | MIC [4] [µg/mL] | MIC [5] [µg/mL] | MIC [6] [µg/mL] | MIC [7] [µg/mL] | MIC [8] [µg/mL] | MIC [9] [µg/mL] | MIC [10] [µg/mL] | MIC [11] [µg/mL] | MIC [12] [µg/mL] | MIC [13] [µg/mL] | MIC [14] [µg/mL] | MIC [15] [µg/mL] | MIC [16] [µg/mL] | Acidity or basicity [17] | Solubility ([18]; acetone) | Solubility ([18]; diethyl ether) | Solubility ([18]; dimethylsulfoxide) | also measured
1 | CN1C(=O)C[C@H](CCCNC(=N)N)NC(=O)[C@@H]1CNC(=N)NC(N)=O [TAN-1057D] | converted into TAN-1057B and TAN-1057A, respectively | 0.78 (≈ 2.19 µM) | > 100 | 12.5 (≈ 35.2 µM) | > 100 | > 100 | 25 (≈ 70.3 µM) | 12.5 (≈ 35.2 µM) | 12.5 (≈ 35.2 µM) | 25 (≈ 70.3 µM) | > 100 | 6.25 (≈ 17.6 µM) | > 100 | 12.5 (≈ 35.2 µM) | 6.25 (≈ 17.6 µM) | 3.13 (≈ 8.81 µM) | – | – | – | – | –
2 | CN(C(=O)C[C@@H](N)CCCNC(=N)N)[C@@H]1CNC(NC(N)=O)=NC1=O [TAN-1057B dihydrochloride] | – | – | – | – | – | – | – | – | – | – | – | – | – | – | – | – | neutral | Sparingly soluble | Sparingly soluble | Soluble | Solubility ([18]; ethyl acetate): Sparingly soluble; Solubility ([18]; methanol): Soluble; Solubility ([18]; water): Readily soluble
3 | CN1C(=O)C[C@H](CCCNC(=N)N)NC(=O)[C@@H]1CNC(=N)NC(N)=O [TAN-1057D dihydrochloride] | – | – | – | – | – | – | – | – | – | – | – | – | – | – | – | – | neutral | Sparingly soluble | Sparingly soluble | Soluble | Solubility ([18]; ethyl acetate): Sparingly soluble; Solubility ([18]; methanol): Soluble; Solubility ([18]; water): Readily soluble
4 | CN1C(=O)C[C@H](CCCNC(=N)N)NC(=O)[C@H]1CNC(=N)NC(N)=O [TAN-1057C] | converted into TAN-1057B | 6.25 (≈ 17.6 µM) | > 100 | > 100 | > 100 | > 100 | > 100 | 50 (≈ 141 µM) | > 100 | > 100 | > 100 | 50 (≈ 141 µM) | > 100 | 50 (≈ 141 µM) | 50 (≈ 141 µM) | 12.5 (≈ 35.2 µM) | – | – | – | – | –
5 | CN(C(=O)C[C@@H](N)CCCNC(=N)N)[C@@H]1CNC(NC(N)=O)=NC1=O [TAN-1057B] | – | 3.13 (≈ 8.81 µM) | > 100 | 50 (≈ 141 µM) | > 100 | > 100 | 100 (≈ 281 µM) | 50 (≈ 141 µM) | 50 (≈ 141 µM) | 100 (≈ 281 µM) | > 100 | 25 (≈ 70.3 µM) | > 100 | 25 (≈ 70.3 µM) | 25 (≈ 70.3 µM) | 12.5 (≈ 35.2 µM) | – | – | – | – | conversion of TAN-1057A and B into each other ([1]; room temperature): converted easily each other

— patent publication US4971965A, “Antibiotics TAN-1057” (Takeda Chemical Industries, Ltd., priority 1988, dated 1990)
